US20230092890A1, “1, 3, 4-Oxadiazole derivative compounds as histone deacetylase 6 inhibitor, and the pharmaceutical composition comprising the same” (Chong Kun Dang Pharmaceutical Corp., priority 2019, published 2023)

Tests used:
HDAC1 = molecular target: T1, HDAC1 (Homo sapiens, UniProt Q13547); test: HDAC enzyme activity inhibition (in vitro), HDAC1 Fluorimetric Drug Discovery Assay Kit; assay type: biochemical; details: samples at 100, 1000 and 10000 nM; 37° C. 60 minutes; fluorescence Ex 390, Em 460; read-out: HDAC1 IC50
T1 construct: purchased Enzolifesciences BML-AK511
Summary of the method: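 Fluorescence read-out (Ex 390/Em 460) after developer step, 30 min at 37° C, following a 60-min 37° C enzyme reaction. Test concentrations: HDAC1 kit, 100–10000 nM (three levels); recombinant human HDAC6, 0.1–1000 nM (five levels).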

HDAC6 human recombinant = molecular target: T2, HDAC6 human recombinant (Homo sapiens, UniProt Q9UBN7); test: HDAC enzyme activity inhibition (in vitro), HDAC6 assay; assay type: biochemical; details: samples at 0.1, 1, 10, 100 and 1000 nM; 37° C. 60 minutes; fluorescence Ex 390, Em 460; read-out: HDAC6 IC50
T2 construct: purchased Calbiochem 382180
T2 sequence (Q9UBN7 1-1215): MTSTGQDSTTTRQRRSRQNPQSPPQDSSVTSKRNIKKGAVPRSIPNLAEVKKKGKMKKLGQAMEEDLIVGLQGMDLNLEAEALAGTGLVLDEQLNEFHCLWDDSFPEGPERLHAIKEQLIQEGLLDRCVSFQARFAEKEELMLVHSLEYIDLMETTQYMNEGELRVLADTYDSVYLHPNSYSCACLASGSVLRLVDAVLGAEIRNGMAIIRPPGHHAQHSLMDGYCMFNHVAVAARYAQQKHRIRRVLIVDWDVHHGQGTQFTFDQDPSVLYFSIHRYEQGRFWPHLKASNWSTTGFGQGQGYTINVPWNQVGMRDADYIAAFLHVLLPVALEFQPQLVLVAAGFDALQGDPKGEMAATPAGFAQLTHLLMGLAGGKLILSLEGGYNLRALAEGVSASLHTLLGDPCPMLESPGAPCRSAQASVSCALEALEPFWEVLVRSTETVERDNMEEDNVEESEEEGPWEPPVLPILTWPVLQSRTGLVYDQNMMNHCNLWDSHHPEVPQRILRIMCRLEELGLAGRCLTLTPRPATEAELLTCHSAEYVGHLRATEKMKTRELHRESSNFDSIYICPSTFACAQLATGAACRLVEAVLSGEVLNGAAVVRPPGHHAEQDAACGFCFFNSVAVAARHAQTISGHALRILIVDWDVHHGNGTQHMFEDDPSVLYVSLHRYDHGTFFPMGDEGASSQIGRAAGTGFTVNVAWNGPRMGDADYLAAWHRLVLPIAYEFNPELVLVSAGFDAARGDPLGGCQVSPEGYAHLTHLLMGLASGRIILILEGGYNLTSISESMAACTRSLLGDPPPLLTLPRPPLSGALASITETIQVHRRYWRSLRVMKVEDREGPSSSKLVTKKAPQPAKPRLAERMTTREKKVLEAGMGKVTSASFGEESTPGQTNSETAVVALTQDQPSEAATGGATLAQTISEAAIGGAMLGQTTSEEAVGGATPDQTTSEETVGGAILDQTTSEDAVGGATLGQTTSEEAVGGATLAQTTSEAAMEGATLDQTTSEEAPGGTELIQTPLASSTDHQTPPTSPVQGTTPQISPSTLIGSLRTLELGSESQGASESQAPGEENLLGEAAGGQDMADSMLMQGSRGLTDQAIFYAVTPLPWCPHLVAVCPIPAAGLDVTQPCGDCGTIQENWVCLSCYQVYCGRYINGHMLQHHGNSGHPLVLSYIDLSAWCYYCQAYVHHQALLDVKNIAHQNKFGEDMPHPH
Summary of the method: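 Fluorescence (Ex 390, Em 460) read after a 37° C, 60 min enzyme reaction and a further 30 min developer step at 37° C. Uses recombinant human HDAC6; HDAC1 arm dosed at 100, 1000, 10000 nM.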

T1 sequence (Q13547 whole entry): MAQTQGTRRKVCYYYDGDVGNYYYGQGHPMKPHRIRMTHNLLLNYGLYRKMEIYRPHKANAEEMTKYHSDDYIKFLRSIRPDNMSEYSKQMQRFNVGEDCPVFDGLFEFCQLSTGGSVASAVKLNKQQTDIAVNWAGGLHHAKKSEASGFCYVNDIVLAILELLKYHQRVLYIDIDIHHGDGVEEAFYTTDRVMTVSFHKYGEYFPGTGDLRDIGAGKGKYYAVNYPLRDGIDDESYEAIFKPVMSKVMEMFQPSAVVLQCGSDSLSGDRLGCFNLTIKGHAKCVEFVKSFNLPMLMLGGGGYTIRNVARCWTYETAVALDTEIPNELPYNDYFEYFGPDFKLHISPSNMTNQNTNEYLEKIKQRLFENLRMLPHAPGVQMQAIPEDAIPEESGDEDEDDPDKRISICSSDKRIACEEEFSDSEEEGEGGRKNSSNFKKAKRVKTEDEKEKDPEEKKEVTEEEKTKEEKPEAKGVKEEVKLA

O=c1n(CCN2CCOCC2)c2cc(-c3cccc4[nH]ccc34)c(F)cc2n1Cc1ccc(-c2nnc(C(F)F)o2)cn1 [Compound 269, 1-((5-(5-(difluoromethyl)-1,3,4-oxadiazole-2-yl)pyridine-2-yl)methyl)-6-fluoro-5-(1H-indole-4-yl)-3-(2-morpholinoethyl)-1,3-dihydro-2H-benzo[d]imidazole-2-one]
IC50 (HDAC1): > 10000 nM
IC50 (HDAC6 human recombinant): 6 nM

CN1CC[C@H](n2c(=O)n(Cc3ccc(-c4nnc(C(F)F)o4)cn3)c3cc(F)c(-c4cccc5[nH]ccc45)cc32)C1 [Compound 270, (S)-1-((5-(5-(difluoromethyl)-1,3,4-oxadiazole-2-yl)pyridine-2-yl)methyl)-6-fluoro-5-(1H-indole-4-yl)-3-(1-methylpyrrolidine-3-yl)-1,3-dihydro-2H-benzo[d]imidazole-2-one]
IC50 (HDAC1): > 10000 nM
IC50 (HDAC6 human recombinant): 19 nM

O=c1n(Cc2ccc(-c3nnc(C(F)F)o3)cn2)c2cc(Cl)ccc2n1C1CCN(C2COC2)CC1 [Compound 271, 5-chloro-3-((5-(5-(difluoromethyl)-1,3,4-oxadiazole-2-yl)pyridine-2-yl)methyl)-1-(1-(oxetan-3-yl)piperidine-4-yl)-1,3-dihydro-2H-benzo[d]imidazole-2-one]
IC50 (HDAC1): > 10000 nM
IC50 (HDAC6 human recombinant): 27 nM

CN1CC[C@@H](n2c(=O)n(Cc3ccc(-c4nnc(C(F)F)o4)cn3)c3cc(F)c(-c4ccncc4)cc32)C1 [Compound 272, (R)-1-((5-(5-(difluoromethyl)-1,3,4-oxadiazole-2-yl)pyridine-2-yl)methyl)-6-fluoro-3-(1-methylpyrrolidine-3-yl)-5-(pyridine-4-yl)-1,3-dihydro-2H-benzo[d]imidazole-2-one]
IC50 (HDAC1): > 10000 nM
IC50 (HDAC6 human recombinant): 29 nM

CN1CC[C@@H](n2c(=O)n(Cc3ccc(-c4nnc(C(F)F)o4)cn3)c3cc(F)c(-c4cccc5[nH]ccc45)cc32)C1 [Compound 273, (R)-1-((5-(5-(difluoromethyl)-1,3,4-oxadiazole-2-yl)pyridine-2-yl)methyl)-6-fluoro-5-(1H-indole-4-yl)-3-(1-methylpyrrolidine-3-yl)-1,3-dihydro-2H-benzo[d]imidazole-2-one]
IC50 (HDAC1): > 10000 nM
IC50 (HDAC6 human recombinant): 14 nM

CN1CCC[C@@H](n2c(=O)n(Cc3ccc(-c4nnc(C(F)F)o4)cn3)c3cc(F)c(-c4cccnc4)cc32)C1 [Compound 274, (R)-1-((5-(5-(difluoromethyl)-1,3,4-oxadiazole-2-yl)pyridine-2-yl)methyl)-6-fluoro-3-(1-methylpiperidine-3-yl)-5-(pyridine-3-yl)-1,3-dihydro-2H-benzo[d]imidazole-2-one]
IC50 (HDAC1): > 10000 nM
IC50 (HDAC6 human recombinant): 12 nM

CN1CCC[C@@H](n2c(=O)n(Cc3ccc(-c4nnc(C(F)F)o4)cn3)c3cc(F)c(-c4ccncc4)cc32)C1 [Compound 275, (R)-1-((5-(5-(difluoromethyl)-1,3,4-oxadiazole-2-yl)pyridine-2-yl)methyl)-6-fluoro-3-(1-methylpiperidine-3-yl)-5-(pyridine-4-yl)-1,3-dihydro-2H-benzo[d]imidazole-2-one]
IC50 (HDAC1): > 10000 nM
IC50 (HDAC6 human recombinant): 16 nM

CN1CCC[C@@H](n2c(=O)n(Cc3ccc(-c4nnc(C(F)F)o4)cn3)c3cc(F)c(-c4cccc5[nH]ccc45)cc32)C1 [Compound 276, (R)-1-((5-(5-(difluoromethyl)-1,3,4-oxadiazole-2-yl)pyridine-2-yl)methyl)-6-fluoro-5-(1H-indole-4-yl)-3-(1-methylpiperidine-3-yl)-1,3-dihydro-2H-benzo[d]imidazole-2-one]
IC50 (HDAC1): > 10000 nM
IC50 (HDAC6 human recombinant): 15 nM

O=c1oc2cc(-c3cccnc3)c(F)cc2n1Cc1ccc(-c2nnc(C(F)F)o2)cn1 [Compound 277, 3-((5-(5-(difluoromethyl)-1,3,4-oxadiazole-2-yl)pyridine-2-yl)methyl)-5-fluoro-6-(pyridine-3-yl)benzo[d]oxazole-2(3H)-one]
IC50 (HDAC1): > 10000 nM
IC50 (HDAC6 human recombinant): 21 nM

O=c1oc2cc(-c3ccncc3)c(F)cc2n1Cc1ccc(-c2nnc(C(F)F)o2)cn1 [Compound 278, 3-((5-(5-(difluoromethyl)-1,3,4-oxadiazole-2-yl)pyridine-2-yl)methyl)-5-fluoro-6-(pyridine-4-yl)benzo[d]oxazole-2(3H)-one]
IC50 (HDAC1): > 10000 nM
IC50 (HDAC6 human recombinant): 17 nM

O=c1oc2cc(-c3cccc4[nH]ccc34)c(F)cc2n1Cc1ccc(-c2nnc(C(F)F)o2)cn1 [Compound 279, 3-((5-(5-(difluoromethyl)-1,3,4-oxadiazole-2-yl)pyridine-2-yl)methyl)-5-fluoro-6-(1H-indole-4-yl)benzo[d]oxazole-2(3H)-one]
IC50 (HDAC1): > 10000 nM
IC50 (HDAC6 human recombinant): 15 nM

O=c1n(Cc2ccc(-c3nnc(C(F)F)o3)cn2)c2ccc(-c3cccnc3)cc2n1C1CCN(C2COC2)CC1 [Compound 280, 1-((5-(5-(difluoromethyl)-1,3,4-oxadiazole-2-yl)pyridine-2-yl)methyl)-3-(1-(oxetan-3-yl)piperidine-4-yl)-5-(pyridine-3-yl)-1,3-dihydro-2H-benzo[d]imidazole-2-one]
IC50 (HDAC1): > 10000 nM
IC50 (HDAC6 human recombinant): 18 nM

CCN1CCC(n2c(=O)n(Cc3ccc(-c4nnc(C(F)F)o4)cn3)c3ccc(-c4cccnc4)cc32)CC1 [Compound 281, 1-((5-(5-(difluoromethyl)-1,3,4-oxadiazole-2-yl)pyridine-2-yl)methyl)-3-(1-ethylpiperidine-4-yl)-5-(pyridine-3-yl)-1,3-dihydro-2H-benzo[d]imidazole-2-one]
IC50 (HDAC1): > 10000 nM
IC50 (HDAC6 human recombinant): 18 nM

O=c1n(Cc2ccc(-c3nnc(C(F)F)o3)cn2)c2ccc(-c3ccncc3)cc2n1C1CCN(C2COC2)CC1 [Compound 282, 1-((5-(5-(difluoromethyl)-1,3,4-oxadiazole-2-yl)pyridine-2-yl)methyl)-3-(1-(oxetan-3-yl)piperidine-4-yl)-5-(pyridine-4-yl)-1,3-dihydro-2H-benzo[d]imidazole-2-one]
IC50 (HDAC1): > 10000 nM
IC50 (HDAC6 human recombinant): 16 nM

CCN1CCC(n2c(=O)n(Cc3ccc(-c4nnc(C(F)F)o4)cn3)c3ccc(-c4ccncc4)cc32)CC1 [Compound 283, 1-((5-(5-(difluoromethyl)-1,3,4-oxadiazole-2-yl)pyridine-2-yl)methyl)-3-(1-ethylpiperidine-4-yl)-5-(pyridine-4-yl)-1,3-dihydro-2H-benzo[d]imidazole-2-one]
IC50 (HDAC1): > 10000 nM
IC50 (HDAC6 human recombinant): 23 nM

Cn1c(=O)n(Cc2ccc(-c3nnc(C(F)F)o3)cn2)c2cc(F)c(N3CCN(Cc4cccc5[nH]ccc45)CC3)cc21 [Compound 284, 5-(4-((1H-indole-4-yl)methyl)piperazine-1-yl)-1-((5-(5-(difluoromethyl)-1,3,4-oxadiazole-2-yl)pyridine-2-yl)methyl)-6-fluoro-3-methyl-1,3-dihydro-2H-benzo[d]imidazole-2-one]
IC50 (HDAC1): > 10000 nM
IC50 (HDAC6 human recombinant): 59 nM

Cn1c(=O)n(Cc2ccc(-c3nnc(C(F)F)o3)cn2)c2cc(F)c(N3CCN(Cc4cn[nH]c4)CC3)cc21 [Compound 285, 5-(4-((1H-pyrazole-4-yl)methyl)piperazine-1-yl)-1-((5-(5-(difluoromethyl)-1,3,4-oxadiazole-2-yl)pyridine-2-yl)methyl)-6-fluoro-3-methyl-1,3-dihydro-2H-benzo[d]imidazole-2-one]
IC50 (HDAC1): > 10000 nM
IC50 (HDAC6 human recombinant): 33 nM

O=c1n(Cc2ccc(-c3nnc(C(F)F)o3)cn2)c2cc(F)c(-c3cccnc3)cc2n1[C@@H]1CCN(C2COC2)C1 [Compound 286, (R)-1-((5-(5-(difluoromethyl)-1,3,4-oxadiazole-2-yl)pyridine-2-yl)methyl)-6-fluoro-3-(1-(oxetan-3-yl)pyrrolidine-3-yl)-5-(pyridine-3-yl)-1,3-dihydro-2H-benzo[d]imidazole-2-one]
IC50 (HDAC1): > 10000 nM
IC50 (HDAC6 human recombinant): 9 nM
